Assays:
Assay type in all cases: in vivo
[1] = Anti-convulsant activity in the mouse (convulsions induced by 1,5-pentamethylenetetrazole); settings: 30 min before pentamethylenetetrazole s.c.
Procedure: The inhibition of convulsions induced by 1,5-pentamethylenetetrazole was tested by the Clen method. The test compounds were administered orally to the mice, in the doses shown in Table 3, in the form of suspensions in 1% sodium carboxymethyl cellulose solution, and 30 minutes later the test animals were injected subcutaneously with […] of 1,5-pentamethylenetetrazole. The number of mice protected from lethal extensorial tonic spasms, per group of 10 test animals, was recorded.

[2] = Potentiation of narcosis (hexobarbitone sodium) in the mouse, Winter method; settings: hexobarbitone sodium 80 mg/kg i.p., control 33.3
Procedure: The Winter method was used, in which a state of narcosis is induced by the intraperitoneal administration of 80 mg/kg of hexobarbitone sodium, and is assessed by the loss of the righting reflex in the test animal. […] orally to the animals, in doses shown in Table 4, as suspensions in 1% sodium carboxymethyl cellulose solution; and the prolongation of narcosis in the animals thus treated was observed, by comparison with controls which received only the hexobarbitone administration.

[3] = Motor coordination in the rat (Rota-rod method, Dunham and Miya)
Procedure: The method of Dunham and Miya was used, which consists in placing the test animal on a rod rotating at 14 r.p.m., and recording the percentage of animals which fall off within 2 minutes. The test compound 1 was administered orally to the animals, in the various doses shown in Table 1, as a suspension in 1% sodium carboxymethyl cellulose solution. The animals were then tested 30 minutes and 60 minutes after the administration of the test compound.

## C#CCN1C(=O)CN=C(c2ccccc2)c2cc(Cl)ccc21 [Compound 1, 7-chloro-2,3-dihydro-5-phenyl-1-propargyl-1H-1,4-benzodiazepin-2-one]
[1]; 0.5 mg/kg oral
  No. of Animals Protected: 0/10
[1]; 1.0 mg/kg oral
  No. of Animals Protected: 5/10
[1]; 2.0 mg/kg oral
  No. of Animals Protected: 9/10
[2]; 1.0 mg/kg oral
  Duration of narcosis: 70.7 min
[2]; 2.0 mg/kg oral
  Duration of narcosis: 111.3 min
[3]; 3 mg/kg oral, 30 minutes after administration
  Percentage of animals falling within 2 minutes: 0%
[3]; 3 mg/kg oral, 60 minutes after administration
  Percentage of animals falling within 2 minutes: 0%
[3]; 6 mg/kg oral, 30 minutes after administration
  Percentage of animals falling within 2 minutes: 50%
[3]; 6 mg/kg oral, 60 minutes after administration
  Percentage of animals falling within 2 minutes: 17%
[3]; 12 mg/kg oral, 30 minutes after administration
  Percentage of animals falling within 2 minutes: 100%
[3]; 12 mg/kg oral, 60 minutes after administration
  Percentage of animals falling within 2 minutes: 50%
